Consider two substances from article PMC10674851, “Discovery and Characterization of a Dual-Function Peptide Derived from Bitter Gourd Seed Protein Using Two Orthogonal Bioassay-Guided Fractionations Coupled with In Silico Analysis” (Pharmaceuticals, 2023).

One may read the IC50 as the concentration that inhibits the measured activity by half.

Data set [1] deals with T1, angiotensin-I-converting enzyme (ACE) from rabbit lungs (Oryctolagus cuniculus, UniProt P12822).
T1 construct: angiotensin-I-converting enzyme (ACE) from rabbit lungs; purchased Sigma-Aldrich Co. (Saint Louis, MO, USA); host or cells: rabbit lung tissue
T1 sequence (P12822 34-1310): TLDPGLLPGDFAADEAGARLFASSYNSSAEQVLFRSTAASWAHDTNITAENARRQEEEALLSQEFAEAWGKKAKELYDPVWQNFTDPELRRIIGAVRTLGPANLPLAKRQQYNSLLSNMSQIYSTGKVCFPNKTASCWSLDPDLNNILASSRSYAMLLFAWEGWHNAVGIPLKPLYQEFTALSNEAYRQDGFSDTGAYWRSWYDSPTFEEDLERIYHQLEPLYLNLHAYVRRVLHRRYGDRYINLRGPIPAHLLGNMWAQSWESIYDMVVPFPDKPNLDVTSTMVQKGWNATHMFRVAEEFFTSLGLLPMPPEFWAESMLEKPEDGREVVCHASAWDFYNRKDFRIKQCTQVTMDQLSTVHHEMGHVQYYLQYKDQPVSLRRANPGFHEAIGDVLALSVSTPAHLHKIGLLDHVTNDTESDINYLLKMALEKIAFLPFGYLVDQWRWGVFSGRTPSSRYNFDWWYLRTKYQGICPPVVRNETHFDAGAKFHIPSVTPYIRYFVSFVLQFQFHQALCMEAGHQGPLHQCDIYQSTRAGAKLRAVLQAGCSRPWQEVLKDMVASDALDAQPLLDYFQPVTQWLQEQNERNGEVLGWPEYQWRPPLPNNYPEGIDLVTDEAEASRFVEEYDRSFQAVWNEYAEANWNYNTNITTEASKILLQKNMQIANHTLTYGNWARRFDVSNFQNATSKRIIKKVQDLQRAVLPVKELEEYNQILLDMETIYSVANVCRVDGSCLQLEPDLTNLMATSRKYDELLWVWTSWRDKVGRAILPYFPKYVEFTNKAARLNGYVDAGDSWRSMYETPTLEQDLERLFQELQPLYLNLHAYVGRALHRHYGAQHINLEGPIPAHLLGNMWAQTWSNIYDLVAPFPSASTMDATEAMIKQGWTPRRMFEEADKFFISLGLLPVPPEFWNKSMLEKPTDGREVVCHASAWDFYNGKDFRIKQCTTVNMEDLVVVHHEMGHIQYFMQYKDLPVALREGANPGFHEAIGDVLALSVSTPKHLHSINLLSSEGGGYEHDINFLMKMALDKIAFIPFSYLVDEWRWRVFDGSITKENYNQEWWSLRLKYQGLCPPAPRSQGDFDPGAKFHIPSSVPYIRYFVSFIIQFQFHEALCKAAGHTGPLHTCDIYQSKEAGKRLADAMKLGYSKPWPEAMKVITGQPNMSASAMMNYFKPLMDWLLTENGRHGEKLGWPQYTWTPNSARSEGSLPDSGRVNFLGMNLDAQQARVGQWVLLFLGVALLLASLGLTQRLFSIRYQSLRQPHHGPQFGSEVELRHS
The data set can be described thus: ACE inhibitory (ACEI) activity assay, HHL substrate, hippuric acid by RP-HPLC. Format: biochemical. The following applies: synthetic AW6, seven logarithmic concentrations, non-linear interpolation; mean ± SD, triplicate.
Protocol: The ACEI activity was studied according to Cushman and Cheung [43], with a few modifications. First, 10 µL of the testing sample was premixed with 30 µL of hippuryl–histidine–leucine (HHL) and incubated at 37 °C for 5 min. Then, 20 µL of ACE (0.05 mU/µL) was added. Afterward, the reaction was held statically at 37 °C for 30 min and continued with shaking at 200 rpm for another 30 min. Then, 60 µL of 1 N hydrogen chloride was used to quench the reaction, and 10 µL of 0.25 µg/µL ferulic acid was mixed for an internal standard. […] The area under the curve of hippuric acid (HA) was observed using UV–Vis RP-HPLC at a wavelength of 228 nm, 1 mL/min steady flow rate, and 15 min of isocratic elution (26% ACN with 0.1% TFA in deionized water). The inhibitory activity of ACE was determined using the following equation:(2) ACE inhibitory activity %=1−HAinhibitor/HAno inhibitor×100%,
The HA(inhibitor) and HA(no inhibitor) were the areas under the curve of the hippuric acid acquired in the presence and absence of an inhibitor. The half-maximal inhibitory concentration of ACE inhibition (ACEI IC50) was calculated using a non-linear interpolation constructed with a minimum of six logarithmic concentrations of the testing sample.

In data set [2] the target is T2, recombinant human dipeptidyl peptidase-IV (DPP4) (Homo sapiens, UniProt P27487).
T2 construct: purchased Sigma-Aldrich Co. (Saint Louis, MO, USA)
T2 sequence (P27487 whole entry): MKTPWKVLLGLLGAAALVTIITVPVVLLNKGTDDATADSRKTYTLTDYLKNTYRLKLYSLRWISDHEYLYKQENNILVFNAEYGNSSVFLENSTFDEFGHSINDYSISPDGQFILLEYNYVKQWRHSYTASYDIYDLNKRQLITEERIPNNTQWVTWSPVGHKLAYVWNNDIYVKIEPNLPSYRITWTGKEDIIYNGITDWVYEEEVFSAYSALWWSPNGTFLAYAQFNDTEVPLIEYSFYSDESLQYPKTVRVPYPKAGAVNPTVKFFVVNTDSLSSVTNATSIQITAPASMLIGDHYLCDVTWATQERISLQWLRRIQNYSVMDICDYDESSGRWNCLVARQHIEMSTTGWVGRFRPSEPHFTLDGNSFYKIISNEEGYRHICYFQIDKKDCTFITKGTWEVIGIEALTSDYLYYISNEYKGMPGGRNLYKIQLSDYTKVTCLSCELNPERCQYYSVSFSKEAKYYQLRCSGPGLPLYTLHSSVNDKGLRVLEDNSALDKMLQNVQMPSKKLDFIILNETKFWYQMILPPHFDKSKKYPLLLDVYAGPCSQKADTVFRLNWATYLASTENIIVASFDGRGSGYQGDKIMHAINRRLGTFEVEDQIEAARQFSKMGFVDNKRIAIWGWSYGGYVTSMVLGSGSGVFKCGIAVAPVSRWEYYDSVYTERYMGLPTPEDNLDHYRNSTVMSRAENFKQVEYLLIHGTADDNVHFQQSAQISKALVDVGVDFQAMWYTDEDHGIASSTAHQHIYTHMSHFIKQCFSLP
The data set can be described thus: DPP4 inhibitory (DPP4I) activity assay, GP-pNA substrate, absorbance 405 nm. In kind it is biochemical. The following applies: seven logarithmic concentrations, non-linear interpolation; mean ± SD, triplicate. The procedure: The DPP4 inhibitory activity was determined as described by Nong, N. T. P. et al., with a few modifications. The testing samples, GP-pNA, linagliptin, and DPP4 were dissolved in 0.1 M Tris-HCl buffer, pH 8.0. Briefly, 25 µL of the testing sample was premixed with 25 µL of 1.6 mM GP-pNA and incubated at 37 °C for 10 min. Then, 50 µL of DPP4 (0.5 U/µL) was added. The reaction was continued for 60 min at 37 °C. The enzymatic reaction was quenched by adding 100 µL of 1 M sodium acetate, pH 4.0. The absorbance of pNA, as a product of the DPP4 and GP-pNA reactions, was monitored using a PowerWave XS (Biotek®, Winooski, VT, USA) 96-well microplate reader at a wavelength of 405nm. DPP4 inhibitory activity was calculated by the following equation:(3) DPP4 inhibitory activity %=1−pNAinhibitor/pNA no inhibitor×100%,
The pNA(inhibitor) and pNA(no inhibitor) were the absorbances of the pNA (λ = 405 nm) acquired in the presence and absence of an inhibitor, respectively. The half-maximal inhibitory concentration of DPP4 inhibition (DPP4I IC50) value was calculated using a non-linear interpolation for at least six logarithmic concentrations of the inhibitor.

For data set [3] the following is noted: in vivo, cited from earlier work. The source says:
Simultaneously, ACE2, a homologue of ACE, counteracts the vasoconstrictor effects by converting Ang-II into Ang 1–7 (a vasodilator). ACE2 also transforms Ang-I into Ang 1–9, and ACE hydrolyzes Ang 1–9 into Ang 1–7, resulting in a vasodilation effect. However, Ang 1–7 has a short half-life of only half an hour in the human body, and i ...

No end group written: not given here.

On to APLVSW [AW6, APLVSW], for which the IC50 was 9.6 ± 0.3 µM in data set [1] and 145 ± 4.4 µM in data set [2].

For “Ang 1–7: vasodilator formed from Ang-II by ACE2”, the half-life result in data set [3] (human) is “half an hour”. The “time of peak concentration in plasma” value in data set [3] is “one hour”.
